Measured values taken from ChEMBL document CHEMBL3608226, “Synthesis and biological evaluation of phaitanthrin congeners as anti-mycobacterial agents” (2015).
≈ marks a conversion by molar mass, not a printed value.

Test system: Mycolicibacterium smegmatis
Experiment: Antimycobacterial activity against Mycobacterium smegmatis
Format: functional
Conditions: not given

Q: Which MIC does the source give for `O=C1c2ccccc2-n2c1nc1ccccc1c2=O` [TRYPTANTHRIN] here?
A: 6 µg/mL (≈ 24.2 µM)

Test system: Mycobacterium tuberculosis
Experiment: Antimycobacterial activity against Mycobacterium tuberculosis H37Rv
Format: functional
Conditions: not given

Q: How did the MIC turn out when `O=C1c2ccccc2-n2c1nc1ccccc1c2=O` [TRYPTANTHRIN] was run?
A: 1 µg/mL (≈ 4.03 µM)

Test system: Mycobacterium avium
Experiment: Antimycobacterial activity against Mycobacterium avium
Format: functional
Conditions: not given

Q: For `O=C1c2ccccc2-n2c1nc1ccccc1c2=O` [TRYPTANTHRIN], which MIC is on record?
A: 4 µg/mL (≈ 16.1 µM)

Test system: Mycobacterium tuberculosis
Experiment: Antimycobacterial activity against Mycobacterium tuberculosis H37Rv ATCC 27294 after 28 days by agar dilution method
Format: functional
Conditions: H37Rv ATCC 27294, 672 h

Q: How did the MIC turn out when `Nc1ccccc1-c1[nH]c2ccccc2c1-c1c2ccccc2n2c(=O)c3ccccc3[nH]c12` was run?
A: 6.18 µM (≈ 2.72 µg/mL)

Q: With `Nc1ccc(-c2[nH]c3ccccc3c2-c2c3ccccc3n3c(=O)c4ccccc4[nH]c23)cc1` as the molecule, how does the MIC read?
A: 14.2 µM (≈ 6.24 µg/mL)

Q: With `N#Cc1ccc(C(=O)CC2(O)c3ccccc3-n3c2nc2ccccc2c3=O)cc1` (racemic) as the molecule, how does the MIC read?
A: 15.9 µM (≈ 6.26 µg/mL)

Q: `Nc1ccc(C(=O)CC2(O)c3ccccc3-c3nc4ccccc4nc32)cc1` (racemic) was tested. Which MIC did it give?
A: 8.45 µM (≈ 3.1 µg/mL)

Q: Which MIC does the source give for `Nc1ccc(C(=O)CC2(O)c3ccccc3-n3c2nc2ccccc2c3=O)cc1` (racemic) here?
A: 16.3 µM (≈ 6.26 µg/mL)

Q: For `Nc1ccccc1C(=O)CC1(O)c2ccccc2-c2nc3ccccc3nc21` (racemic), which MIC is on record?
A: 17 µM (≈ 6.25 µg/mL)

Q: Which MIC does the source give for `O=C(CC1(O)c2cccc(Br)c2-n2c1nc1ccccc1c2=O)c1ccc(Br)cc1` (racemic) here?
A: 11.9 µM (≈ 6.24 µg/mL)

Q: For `CCc1ccc(C(=O)CC2(O)c3ccccc3-n3c2nc2ccccc2c3=O)cc1` (racemic), which MIC is on record?
A: 7.88 µM (≈ 3.12 µg/mL)

Q: For `O=C(CC1(O)c2ccccc2-n2c1nc1ccccc1c2=O)c1cccs1` (racemic), which MIC is on record?
A: 16.7 µM (≈ 6.25 µg/mL)

Q: Which MIC does the source give for `O=C(O)c1cn(C2CC2)c2cc(N3CCNCC3)c(F)cc2c1=O` [CIPROFLOXACIN] here?
A: 12.6 µM (≈ 4.17 µg/mL)

Q: `O=C(CC1(O)c2ccccc2-n2c1nc1ccccc1c2=O)c1ccccc1O` (racemic) was tested. Which MIC did it give?
A: 16.2 µM (≈ 6.24 µg/mL)

Q: Which MIC does the source give for `Brc1ccc(C2=NN(c3ccccc3)C3(C2)c2ccccc2-c2nc4ccccc4nc23)cc1` (racemic) here?
A: 12.4 µM (≈ 6.25 µg/mL)

Q: For `CCc1ccc(-c2[nH]c3ccccc3c2-c2c3ccccc3n3c(=O)c4ccccc4[nH]c23)cc1`, which MIC is on record?
A: 12.3 µM (≈ 5.59 µg/mL)

Q: `O=c1c2ccccc2[nH]c2c(-c3c(-c4ccc(Br)cc4)[nH]c4ccccc34)c3ccccc3n12` was tested. Which MIC did it give?
A: 56.4 µM (≈ 28.5 µg/mL)

Q: How did the MIC turn out when `O=c1c2ccccc2[nH]c2c(-c3c(-c4cccs4)[nH]c4ccccc34)c3ccccc3n12` was run?
A: 7.3 µM (≈ 3.15 µg/mL)

Q: With `O=C(CC1(O)c2ccccc2-c2nc3ccccc3nc21)c1ccc(Br)cc1` (racemic) as the molecule, how does the MIC read?
A: 14.4 µM (≈ 6.22 µg/mL)

Q: With `O=C(CC1(O)c2ccccc2-n2c1nc1ccccc1c2=O)c1ccccc1NC(=S)Nc1ccc([N+](=O)[O-])cc1` (racemic) as the molecule, how does the MIC read?
A: 5.98 µM (≈ 3.37 µg/mL)

Q: How did the MIC turn out when `O=C(CC1(O)c2ccccc2-n2c1nc1ccccc1c2=O)c1ccc(F)cc1` (racemic) was run?
A: 8.85 µM (≈ 3.42 µg/mL)

Q: With `O=C(CC1(O)c2ccccc2-n2c1nc1ccccc1c2=O)c1ccc(Br)cc1` (racemic) as the molecule, how does the MIC read?
A: 112 µM (≈ 50 µg/mL)

Q: `O=C(CC1(O)c2ccccc2-n2c1nc1ccccc1c2=O)c1ccccc1` (racemic) was tested. Which MIC did it give?
A: 16.9 µM (≈ 6.23 µg/mL)

Q: Which MIC does the source give for `Nc1ccc(C2=NN(c3ccccc3)C3(C2)c2ccccc2-c2nc4ccccc4nc23)cc1` (racemic) here?
A: 7.17 µM (≈ 3.15 µg/mL)

Q: Which MIC does the source give for `O=c1c2ccccc2[nH]c2c(-c3c(-c4ccccc4)[nH]c4ccccc34)c3ccccc3n12` here?
A: 8.58 µM (≈ 3.65 µg/mL)

Q: How did the MIC turn out when `Nc1ccccc1C1=NN(c2ccccc2)C2(C1)c1ccccc1-c1nc3ccccc3nc12` (racemic) was run?
A: 56.9 µM (≈ 25 µg/mL)

Q: `O=c1c2ccccc2[nH]c2c(-c3c(-c4ccc(F)cc4)[nH]c4ccccc34)c3ccccc3n12` was tested. Which MIC did it give?
A: 27.7 µM (≈ 12.3 µg/mL)

Q: For `CC[C@@H](CO)NCCN[C@@H](CC)CO` [ETHAMBUTOL], which MIC is on record?
A: 15.3 µM (≈ 3.13 µg/mL)

Q: How did the MIC turn out when `N#Cc1ccc(-c2[nH]c3ccccc3c2-c2c3ccccc3n3c(=O)c4ccccc4[nH]c23)cc1` was run?
A: 7.06 µM (≈ 3.18 µg/mL)

Q: Which MIC does the source give for `Nc1ccccc1C(=O)CC1(O)c2ccccc2-n2c1nc1ccccc1c2=O` (racemic) here?
A: 3.99 µM (≈ 1.53 µg/mL)

Q: Which MIC does the source give for `O=c1c2ccccc2[nH]c2c(-c3c(-c4ccccc4O)[nH]c4ccccc34)c3ccccc3n12` here?
A: 29.4 µM (≈ 13 µg/mL)
